The record followed here is the supplement of paper PMC12350171.

Experiment [1] concerns Com21 synthetic gut community. Kind of experiment: community biomass OD578 after 24 h drug treatment relative to untreated (fraction of untreated control); higher = more community growth. The settings on record: community: Com21 (Com20 + E. coli ED1a). The protocol:
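Com21 (Com20 plus E. coli ED1a) was treated with drug for 24 h under anaerobic conditions in mGAM. Community OD578 was then measured and normalised to untreated Com21; mean of 3 biological replicates.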

For experiment [2], the system named is Escherichia coli ED1a. As to the kind of experiment: IC25 growth inhibition; higher = less potent. In a few lines:
(§1)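 Overnight monocultures grown in mGAM were moved into pre-reduced plates containing twofold drug dilutions, at a starting OD578 of 0.01 with 1% DMSO (or water). Plates were kept anaerobic and read hourly at OD578 in a plate reader, with at least three biological replicates. For each concentration, the median area under the growth curve was made monotonic, and IC25 was the lowest concentration whose median fell below a cutoff, reported as a tested interval. That cutoff was 0.75.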

Experiment [3] deals with Fusobacterium nucleatum subsp. Nucleatum. As to the kind of experiment: IC25 growth inhibition; higher = less potent. In a few lines:
as §1

The test system of experiment [4] is Clostridium ramosum. As to the kind of experiment: IC25 growth inhibition; higher = less potent. The essentials:
as §1

Experiment [5] has as its system Coprococcus comes. Kind of experiment: IC25 growth inhibition; higher = less potent. The essentials:
as §1

In experiment [6] the test system is Bacteroides uniformis. Kind of experiment: IC25 growth inhibition; higher = less potent. In a few lines: as §1
The test system of experiment [7] is Ruminococcus gnavus. As to the kind of experiment: IC25 growth inhibition; higher = less potent. In a few lines:
as §1

The subject of experiment [8] is Roseburia intestinalis. As to the kind of experiment: IC25 growth inhibition; higher = less potent. The essentials:
as §1

For experiment [9], the system named is Bacteroides vulgatus. Kind of experiment: IC25 growth inhibition; higher = less potent. The essentials: as §1
Experiment [10] concerns Streptococcus parasanguinis. Kind of experiment: IC25 growth inhibition; higher = less potent. In a few lines: as §1
For experiment [11], the system named is Bacteroides thetaiotaomicron. As to the kind of experiment: IC25 growth inhibition; higher = less potent. In a few lines:
as §1

Experiment [12] has as its system Dorea formicigenerans. Kind of experiment: IC25 growth inhibition; higher = less potent. The essentials: as §1
The test system of experiment [13] is Clostridium bolteae. As to the kind of experiment: IC25 growth inhibition; higher = less potent. The essentials: as §1
Experiment [14] deals with Streptococcus salivarius. Kind of experiment: IC25 growth inhibition; higher = less potent. The essentials:
as §1

Experiment [15] has as its system Vibrio cholerae. Kind of experiment: IC25 growth inhibition; higher = less potent. The essentials:
as §1

Experiment [16] concerns Parabacteroides merdae. Kind of experiment: IC25 growth inhibition; higher = less potent. The essentials: as §1
In experiment [17] the test system is Yersinia pseudotuberculosis. As to the kind of experiment: IC25 growth inhibition; higher = less potent. In a few lines: as §1
Experiment [18] relates to Bacteroides fragilis NT. As to the kind of experiment: IC25 growth inhibition; higher = less potent. The essentials:
as §1

Experiment [19] concerns Shigella flexneri. As to the kind of experiment: IC25 growth inhibition; higher = less potent. The essentials: as §1
Experiment [20] relates to Yersinia enterocolitica WA-314. Kind of experiment: IC25 growth inhibition; higher = less potent. The essentials: as §1
For experiment [21], the system named is Clostridium saccharolyticum. Kind of experiment: IC25 growth inhibition; higher = less potent. In a few lines:
as §1

Experiment [22] relates to Clostridium perfringens. As to the kind of experiment: IC25 growth inhibition; higher = less potent. In a few lines:
as §1

Experiment [23] deals with Eubacterium rectale. As to the kind of experiment: IC25 growth inhibition; higher = less potent. In a few lines: as §1
For experiment [24], the system named is Collinsella aerofaciens. Kind of experiment: IC25 growth inhibition; higher = less potent. The essentials: as §1
Experiment [25] deals with Salmonella enterica typhimurium. As to the kind of experiment: IC25 growth inhibition; higher = less potent. The essentials: as §1
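Wherever IC25 growth inhibition is given: lowest concentration where monotonic median growth AUC falls below 0.75 of drug-free control.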

In the case of `Cc1c(N(C)CS(=O)(=O)O)c(=O)n(-c2ccccc2)n1C` [Metamizole], the “community biomass OD578” value in [1] (drug pretreatment concentration 10 µM) is 1; in experiment [1] (drug pretreatment concentration 20 µM), 0.981; in experiment [1] (drug pretreatment concentration 40 µM), 1.01; in [1] (drug pretreatment concentration 80 µM), 1; in experiment [1] (drug pretreatment concentration 160 µM), 0.994.

Turning to `Cc1ncc([N+](=O)[O-])n1CCO` [Metronidazol], the IC25 growth inhibition in experiment [2] was over 160 µM; in [3], under 1.25 µM; in experiment [4], under 1.25 µM; in [5], under 1.25 µM; in experiment [6], under 1.25 µM; in experiment [7] it was under 1.25 µM. In addition, the IC25 growth inhibition in experiment [8] was under 1.25 µM; in experiment [9], under 1.25 µM; in experiment [10], at most 160 µM; in [11] it was under 1.25 µM; in experiment [12], under 1.25 µM; in experiment [13] it was under 1.25 µM. Besides, the IC25 growth inhibition is over 160 µM in [14]; at most 160 µM in experiment [15]; under 1.25 µM in [16]; at most 160 µM in experiment [17]; under 1.25 µM in [18]; over 160 µM in experiment [19]. Besides, the IC25 growth inhibition in experiment [20] is over 160 µM; in [21] it was under 1.25 µM; in [22], under 1.25 µM; in experiment [23], under 1.25 µM; in [24], under 1.25 µM.

As for `CC(C)(O)c1ccccc1CC[C@@H](SCC1(CC(=O)O)CC1)c1cccc(/C=C/c2ccc3ccc(Cl)cc3n2)c1` [Montelukast], the IC25 growth inhibition in experiment [2] is over 160 µM; in experiment [3], over 80 µM; in experiment [4] it was over 10 µM; in experiment [5], over 80 µM; in [6] it was over 80 µM; in experiment [7], over 80 µM. The IC25 growth inhibition in [8] is at most 10 µM; in experiment [9], over 80 µM; in experiment [10], at most 10 µM; in experiment [11], over 80 µM; in experiment [12], over 80 µM; in experiment [13], over 40 µM. The IC25 growth inhibition in experiment [14] was at most 5 µM; in experiment [15] it was over 20 µM; in experiment [16] it was over 80 µM; in [17], over 20 µM; in experiment [18], over 40 µM; in experiment [19], over 20 µM. The IC25 growth inhibition is over 10 µM in experiment [20]; over 10 µM in experiment [21]; at most 5 µM in [22]; over 10 µM in experiment [25]; at most 10 µM in experiment [23]; over 20 µM in [24].

As to `CCn1cc(C(=O)O)c(=O)c2ccc(C)nc21` [Nalidixic Acid], the IC25 growth inhibition was at most 5 µM in [2]; at most 160 µM in experiment [3]; at most 160 µM in experiment [4]; over 160 µM in experiment [5]; at most 160 µM in [6]; over 160 µM in experiment [7]. Moreover, the IC25 growth inhibition is over 160 µM in experiment [8]; over 160 µM in experiment [9]; over 160 µM in [10]; at most 160 µM in experiment [11]; over 160 µM in experiment [12]; over 160 µM in experiment [13]. Further, the IC25 growth inhibition was over 160 µM in experiment [14]; under 1.25 µM in experiment [15]; at most 80 µM in experiment [16]; at most 2.5 µM in [17]; at most 160 µM in [18]; at most 2.5 µM in [19]. The IC25 growth inhibition in experiment [20] was over 160 µM; in experiment [21], over 160 µM; in [22], at most 20 µM; in [25] it was at most 5 µM; in experiment [23], over 160 µM; in experiment [24] it was over 160 µM.

Consider `CCn1cc(C(=O)O)c(=O)c2cc(F)c(N3CCNCC3)cc21` [Norfloxacin], for which the IC25 growth inhibition in [2] was under 1.25 µM; in [3], at most 20 µM; in [4], at most 160 µM; in experiment [5], at most 20 µM; in experiment [6] it was at most 20 µM; in experiment [7], at most 10 µM. In addition, the IC25 growth inhibition in experiment [8] was at most 160 µM; in experiment [9], at most 80 µM; in experiment [10], at most 20 µM; in [11] it was at most 80 µM; in [12] it was at most 10 µM; in experiment [13], at most 20 µM. Also, the IC25 growth inhibition was at most 10 µM in experiment [14]; under 1.25 µM in experiment [15]; at most 40 µM in [16]; at most 10 µM in [17]; at most 80 µM in [18]; under 1.25 µM in experiment [19]. Besides, the IC25 growth inhibition was at most 10 µM in experiment [20]; at most 40 µM in experiment [21]; at most 2.5 µM in [22]; under 1.25 µM in experiment [25]; at most 40 µM in experiment [23]; at most 10 µM in experiment [24].
